Assay results taken from patent US11987542B2, “Co-crystal of sorafenib derivatives and process for preparation thereof” (EicOsis, LLC, priority 2018, dated 2024).

What was measured:
Assay type in all cases: biochemical
Pig sEH = target: T1, Pig sEH (Sus scrofa, UniProt Q6Q2C2); experiment: sEH inhibition, radioactive assay and liver cytosolic preparation
T1 construct: from tissue
T1 sequence (Q6Q2C2 1-555): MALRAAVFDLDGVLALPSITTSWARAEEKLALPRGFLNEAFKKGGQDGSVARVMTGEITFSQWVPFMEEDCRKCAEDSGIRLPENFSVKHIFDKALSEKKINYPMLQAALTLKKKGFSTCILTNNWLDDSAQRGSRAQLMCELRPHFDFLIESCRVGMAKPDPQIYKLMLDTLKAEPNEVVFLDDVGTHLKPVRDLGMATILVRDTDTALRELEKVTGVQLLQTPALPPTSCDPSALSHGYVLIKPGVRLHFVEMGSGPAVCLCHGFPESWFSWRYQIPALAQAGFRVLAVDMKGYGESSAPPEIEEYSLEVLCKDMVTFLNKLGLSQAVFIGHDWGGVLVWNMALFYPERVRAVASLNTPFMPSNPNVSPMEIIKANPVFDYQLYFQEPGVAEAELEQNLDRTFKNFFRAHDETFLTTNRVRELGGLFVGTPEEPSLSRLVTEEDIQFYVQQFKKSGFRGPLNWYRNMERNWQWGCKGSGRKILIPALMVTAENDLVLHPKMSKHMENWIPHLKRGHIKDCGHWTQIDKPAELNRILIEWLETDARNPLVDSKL

Sheep sEH = target: T2, Sheep sEH (Ovis aries, UniProt A0ACI6PZ20); experiment: as above
T2 sequence (A0ACI6PZ20 1-549): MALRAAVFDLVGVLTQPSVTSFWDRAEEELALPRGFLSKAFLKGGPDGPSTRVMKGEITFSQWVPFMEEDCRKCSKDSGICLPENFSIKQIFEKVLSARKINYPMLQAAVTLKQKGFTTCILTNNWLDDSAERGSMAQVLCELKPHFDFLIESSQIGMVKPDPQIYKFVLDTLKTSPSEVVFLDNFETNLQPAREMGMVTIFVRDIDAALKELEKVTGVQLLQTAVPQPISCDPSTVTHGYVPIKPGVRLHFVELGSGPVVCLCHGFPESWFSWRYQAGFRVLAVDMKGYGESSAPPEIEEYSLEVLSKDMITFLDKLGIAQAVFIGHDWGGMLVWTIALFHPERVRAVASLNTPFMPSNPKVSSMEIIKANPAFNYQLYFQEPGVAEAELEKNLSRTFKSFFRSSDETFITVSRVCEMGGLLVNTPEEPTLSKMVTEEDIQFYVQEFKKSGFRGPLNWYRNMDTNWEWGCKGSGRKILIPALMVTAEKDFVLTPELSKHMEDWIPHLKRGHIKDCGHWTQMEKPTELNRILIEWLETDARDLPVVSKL

Rat sEH = target: T3, Rat sEH (Rattus norvegicus, UniProt P80299); experiment: sEH inhibition, fluorescent assay
T3 sequence (P80299 1-554): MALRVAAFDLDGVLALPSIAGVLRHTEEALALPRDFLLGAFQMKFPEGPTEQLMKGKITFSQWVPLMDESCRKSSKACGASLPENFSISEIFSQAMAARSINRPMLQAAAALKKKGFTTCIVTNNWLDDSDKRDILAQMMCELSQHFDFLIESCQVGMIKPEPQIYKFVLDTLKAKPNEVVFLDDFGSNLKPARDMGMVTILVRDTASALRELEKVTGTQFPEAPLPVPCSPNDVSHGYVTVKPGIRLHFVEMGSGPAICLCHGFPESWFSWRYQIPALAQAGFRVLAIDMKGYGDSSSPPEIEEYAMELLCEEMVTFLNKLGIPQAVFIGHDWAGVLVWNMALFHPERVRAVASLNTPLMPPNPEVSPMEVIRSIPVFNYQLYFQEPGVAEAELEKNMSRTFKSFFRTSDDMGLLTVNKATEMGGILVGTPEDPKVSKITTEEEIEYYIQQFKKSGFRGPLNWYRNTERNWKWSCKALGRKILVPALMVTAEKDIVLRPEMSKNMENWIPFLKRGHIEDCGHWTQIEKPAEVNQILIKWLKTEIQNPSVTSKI

`O=C(Nc1ccc(OC(F)(F)F)cc1)N[C@H]1CC[C@H](Oc2ccc(C(=O)O)cc2)CC1` [EC1728, trans-4-{4-[3-(4-trifluoromethoxy-phenyl)-ureido]-cyclohexyloxy}-benzoic acid] gave an IC50 (Pig sEH) of 0.029 µM, an IC50 (Sheep sEH) of 0.006 µM and an IC50 (Rat sEH) of 0.016 µM.
